Results from US8889629B2, “Use of a cyclic undecapeptide for the preparation of a medicament for administration during myocardial ischaemic events” (Debiopharm International SA, priority 2005, dated 2014).

How the values were obtained:
[1] = tested on: myocardial infarction (ischemia-reperfusion); assay: Model of ischemia-reperfusion in the rabbit, cardioprotective effect (infarction size); assay type: in vivo
Procedure: The aim of this study is to test the cardioprotective effect of the cyclic undecapeptide of formula (I), otherwise referred to as [MeAla]^3-[EtVal]^4-CsA, in terms of reduction in the size of the myocardial infarction measured 4 hours after the occurrence of the infarction.
After tracheotomy and ventilation with ambient air, a thoracotomy is performed in the fourth left intercostal space. A marginal branch of the left circumflex coronary artery is ligatured using a 3.0 silk suture thread. During the procedure, the temperature, the heart rate and the blood pressure are controlled. After occlusion for 30 minutes, the ligature is released (reperfusion) and the animals are kept in a controlled atmosphere for 4 hours before euthanasia.
One group of animals receives the pharmaceutical carrier for [MeAla]^3-[EtVal]^4-CsA, another group is treated with [MeAla]^3-[EtVal]^4-CsA intravenously in the form of a single injection respectively of 20 mg/kg, one minute before the ligature is released. Four hours after the reperfusion, the coronary artery is briefly reoccluded and a blue dye is injected intravenously so as to determine the zone at risk. […] The areas of the zones at risk and of the infarcted myocardium or area of necroses are determined by planimetry. The size of the infarction and the size of the zone at risk are calculated and expressed as percentage of left ventricular weight.

[2] = tested on: myocardial infarction (ischemia-reperfusion); assay: Model of ischemia-reperfusion in the mouse, post-infarction period (infarction size, ventricular remodeling, survival); assay type: in vivo
Procedure: After anesthesia, the mice are intubated and ventilated with a rodent ventilator. The rectal temperature is controlled and maintained at 38°-39° C. After sternotomy, the anterior interventricular artery is ligatured with an 8-0 polypropylene thread. The ischemia is visualized through the appearance of an elevated ST segment on the ECG (electrocardiogram) and the paleness of the myocardium. After 25 minutes of occlusion, the ligature is released and the reperfusion is verified by visual inspection and disappearance of the upshift in the ST segment. The thoracic wall is closed by suturing and the mice are kept in a controlled-temperature atmosphere.
One group of animals receives the carrier for [MeAla]^3-[EtVal]^4-CsA; another group is treated with [MeAla]^3-[EtVal]^4-CsA by intravenous injection (single injection at 10 mg/kg), 3 minutes before the ligature is released. The animals are monitored for 30 days and the mortality is reported for each group.
Four weeks after the reperfusion, the left ventricular remodeling is studied by Doppler echocardiography and the left ventricular ejection fraction is measured.
The zone at risk and the size of the infarction are determined in a group of animals that have undergone 25 minutes of coronary occlusion followed by 24 hours of reperfusion. After a brief reocclusion of the anterior interventricular artery, a blue dye is injected via the vena cava so as to determine the zone at risk. The animals are anesthetized and the heart is excised. The ventricle is cut into 5 thin slices and photographed. Incubation of these slices in 2,3,5-triphenyltetrazolium for 15 minutes at 37° C. makes it possible to differentiate the live (brick red) and necrosed (pale yellow) zones of the myocardium. The slices are photographed. The areas of the zones at risk and of the infarcted myocardium are determined by planimetry. The size of the infarction and the size of the zone at risk are calculated and expressed as percentage of left ventricular weight.

[3] = tested on: septic shock with myocardial dysfunction; assay: Model of septic shock in the mouse (cecal ligature and puncture), survival; assay type: in vivo; conditions: 10 mg/kg parenteral injection just after induction of septic shock, 72 hours after induction of the sepsis (FIG. 2)
Procedure: After the mice had been anesthetized, a peritonitis is induced by cecal ligature and puncture, as follows: a median laparotomy is performed, the cecum is lifted out and a single puncture of said cecum is performed below the ileocecal valve with a 21-gauge needle. The cecum is put back into the abdominal cavity, which is then sutured in 2 planes. After the mice have come round, they are given a parenteral injection of the analgesic nalbuphine.
One group of animals receives physiological saline (control group); another group is treated with [MeAla]^3-[EtVal]^4-CsA at a rate of 10 mg/kg by parenteral injection just after surgical induction of septic shock. The animals are monitored for 4 days and the mortality is reported for each group.

[4] = tested on: human immunodeficiency virus; conditions: cited from earlier work
[5] = compared with cyclosporin A; cited from earlier work
[6] = tested on: MPTP of mitochondria isolated from the brain; conditions: Hansson et al. 2004; cited from earlier work

[MeAla]^3-[EtVal]^4-CsA
decrease in the size of the infarction in the zone at risk compared with pharmaceutical carrier ([1]; 20 mg/kg i.v., 4 hours after reperfusion): ~40% | Infarction size (AN/AR ± SD) ([1]; 30 min occlusion, single i.v. injection 20 mg/kg one minute before ligature release, measured 4 hours after reperfusion): 29 ± 6.0% | Left ventricular ejection fraction ± SD ([2]; mouse, 10 mg/kg i.v. 3 minutes before ligature release, Doppler echocardiography 4 weeks after reperfusion): 77 ± 6% | mortality rate at 4 weeks ([2]; mouse, 10 mg/kg i.v. 3 minutes before ligature release, vs carrier (FIG. 1)): a decrease in the mortality rate | decrease in the size of the infarction in the zone at risk ([2]; mouse, 10 mg/kg i.v., 24 hours after reperfusion, vs carrier (table 2)): ~50% | Infarction size (AN/AR ± SD) ([2]; mouse, 25 min occlusion, single i.v. injection 10 mg/kg 3 minutes before ligature release, 24 hours after reperfusion): 32.1 ± 7.3% | beneficial effects when administration is too early or too late relative to the reperfusion ([2]; same dose of active compound): not obtained | survival rate [3]: approximately 60% | activity in terms of inhibiting the action of the human immunodeficiency virus [4]: strong activity | immunosuppressive properties [5]: not having the well-known immunosuppressive properties | neuroprotective potential: inhibition of MPTP [6]: inhibition of MPTP
